Values of other authors as cited in patent publication US20100239681A1, “Controlled Release Particulates Containing Water-Insoluble Drug” (Biokey, Inc., priority 2009, published 2010).

Settings: at 25° C.

Oc1ccc(C=Cc2cc(O)cc(O)c2)cc1 [resveratrol]
water solubility: < 30 µg/mL
